These results are taken from US11420976B2 (priority 2020, dated 2022).

By pEC50 is commonly meant the EC50 on a negative log10 scale, so that one unit is a factor of ten.

pEC50: −log10 of the molar value.

Experiment [1] deals with rHMPV-GFP (recombinant HMPV CAN97-83, MPV-GFP1). Briefly: HMPV antiviral assay (eGFP fluorescence in Vero E6 cells). The format is cell-based. Conditions: Vero C1008, 120 h, read-out: rHMPV-GFP EC50. As to the method:
HMPV antiviral activity was evaluated using a recombinant version of HMPV CAN97-83 engineered to contain the coding sequence for enhanced green fluorescence protein (eGFP) in the 3′ end of the virus genome (MPV-GFP1, ViraTree). Vero E6 cells (ATCC #CCL-7) were seeded at a density of 12,000 cells/100 μL/well into 96-well cell plates (VENDOR) one day prior to the assay. On the day of screening, the cell culture medium was aspirated from the wells and cells were washed twice with serum-free Eagle's Modified Essential Medium (EMEM, ATCC #) containing 1% penicillin-streptomycin (Invitrogen) (SF-EMEM). Cell washes were performed by dispensing 100 μL SF-EMEM per well and immediately aspirating the wash medium from the well. Following the second wash step, serum-free OptiMEM (Invitrogen, Cat No.) (SF-OptiMEM) containing 0.5 μg/mL TPCK-Trypsin (VENDOR) and 1% penicillin-streptomycin was added to the cells at 50 μL/well. Compounds were added into the 96-well plates using a JANUS automated liquid handling system (VENDOR). Compounds were initially diluted 1:50 into an intermediate 96-well plate containing SF-OptiMEM prior to transfer to the assay plate (25 μL/well). Each of the test compounds was tested in duplicate wells at final concentrations starting from 8 μM or 2 μM using ½ stepwise dilutions for a total of 8 points. Virus infection was performed by preparing a working stock of MPV-GFP1 at a multiplicity of infection (MOI) equal to 0.05/25 μL and aliquoting 25 μL of virus inoculum to the compound and positive control wells. SF-OptiMEM was added (25 μL/well) to the appropriate wells to serve as a virus-free negative control for the assay. The final DMSO concentration of all wells is 0.5%. Plates were incubated at 32° C., 5% CO2 for 5 days. After 5 days incubation, eGFP fluorescence intensity was measured at […] using a Spectramax i3X plate reader (VENDOR). Percent viral inhibition was calculated using the following equation: y=[[…]]×100 Where XQ is the fluorescence intensity measured in a well containing recombinant MPV-GFP1-infected, compound-treated cells and XP is the average fluorescence intensity measured in the wells containing untreated cells infected with recombinant virus. EC50 values were then calculated by non-linear regression using a four parameter curve logistic equation. The curve fit model employed was XLFit Dose Response One Site Model 200: y=(A+(B/(1+((x/C)^D)))) Where A is the minimum y value, B is the maximum y value, C is the log EC50 value, and D is the slope factor. The EC50 of each compound is listed in Table 2 and EC50 ranges are as follows: A<0.2 μM; B≥0.2 μM.

Experiment [2] concerns Human RSV-A (“Long” strain). The experiment is described as follows: RSV-A assay (CPE, ATPlite readout in Hep-2 cells). The format is cell-based. Conditions: human respiratory syncytial virus, 120 h; Hep-2 cells, MOI 0.1, 5-day incubation, ATPlite; read-out: Human RSV-A (“Long” strain) EC50. The method, boiled down: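 Hep-2 cells (8,000/well) infected with RSV-A Long at MOI 0.1 in the presence of 2-fold compound dilutions, in duplicate. After 5 days, protection from cytopathic effect read as cellular ATP by ATPlite luminescence, with virus-only and cell-only controls; EC50 reported.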
A general note: ATP-based viability assays read luminescence as a measure of living cells.

The subject of a further experiment is HRSV. As to conditions: high risk infants, prophylactic use; cited from earlier work.

On to `COc1cc(C(=O)NC[C@@](O)(CO)c2cc3c(c(-c4ccc(F)cc4)n2)OC[C@@]3(N)C(F)(F)F)ccc1OC1CC1` [Example 51, N—((S)-2-((R)-3-amino-7-(4-fluorophenyl)-3-(trifluoromethyl)-2,3-dihydrofuro[2,3-c]pyridin-5-yl)-2,3-dihydroxypropyl)-4-cyclopropoxy-3-methoxybenzamide], for which the pEC50 in experiment [1] was < 6.70; in experiment [2] it was > 6.70.
As to `N[C@@]1(C(F)(F)F)COc2c1cc([C@@](O)(CNC(=O)c1cc(OC3CC3)c3nn(C4CC4)cc3c1)C1CC1)nc2-c1ccc(F)cc1` [Example 55c, N—((S)-2-((R)-3-amino-7-(4-fluorophenyl)-3-(trifluoromethyl)-2,3-dihydrofuro[2,3-c]pyridin-5-yl)-2-cyclopropyl-2-hydroxyethyl)-7-cyclopropoxy-2-cyclopropyl-2H-indazole-5-carboxamide], the pEC50 in experiment [1] and in experiment [2] was > 6.70 in each case.
As for `N[C@@]1(C(F)(F)F)COc2c1cc([C@@](O)(CNC(=O)c1cc(OC3CC3)c3nn(C4CC4)cc3c1)C1CC1)nc2-c1ccc(F)c(Cl)c1` [Example 55d, N—((S)-2-((R)-3-amino-7-(3-chloro-4-fluorophenyl)-3-(trifluoromethyl)-2,3-dihydrofuro[2,3-c]pyridin-5-yl)-2-cyclopropyl-2-hydroxyethyl)-7-cyclopropoxy-2-cyclopropyl-2H-indazole-5-carboxamide], the pEC50 in experiment [1] and in experiment [2] was > 6.70 in each case.
For the molecule `Cn1cc2cc(C(=O)NC[C@](O)(c3cc4c(c(-c5ccc(F)cc5)n3)OC[C@@]4(N)C(F)(F)F)C3CC3)cc(OC3CC3)c2n1` [Example 66, N—((S)-2-((R)-3-amino-7-(4-fluorophenyl)-3-(trifluoromethyl)-2,3-dihydrofuro[2,3-c]pyridin-5-yl)-2-cyclopropyl-2-hydroxyethyl)-7-cyclopropoxy-2-methyl-2H-indazole-5-carboxamide], the pEC50 in experiment [1] and in experiment [2] was > 6.70 in each case.
For Palivizumab, the “effective in reducing hospitalizations” value with HRSV is reported as 60%.
